Experimental data: US20190134039A1, “ANTIVIRAL JAK INHIBITORS USEFUL IN TREATING OR PREVENTING RETROVIRAL AND OTHER VIRAL INFECTIONS” (EMORY UNIVERSITY, priority 2011, published 2019)
Entries after “also recorded” stand apart in the source; their conditions may differ. Where two headings read alike, the source gives them in different places.

What was measured:
HIV-1LAI = assay: microbe, parasite or virus in culture; conditions: for EC90: read-out: Anti-HIV-1 EC90 in acutely infected PBM cells
Text: PBM cells were isolated as follows: Lymphocytes were isolated from buffy coats derived from healthy donors obtained from Life South Laboratories (Dunwoody, Ga.). Activated lymphocytes were maintained for 72 hrs in medium that was supplemented with […] phytohemagglutinin (PHA) (Cape Cod associates, East Falmouth, Mass.). Media was comprised of RPMI media supplemented with 20% fetal calf serum, 1% penicillin/streptomyocin and 2% L-glutamine (Sigma Aldrich, San Jose, Calif.).
PBM cell infections: Testing was performed in duplicate with at least 3 independent assays. Cells were incubated in RPMI medium (HyClone, Logan, Utah) containing HR-IL2 (26.5 units/ml) and 20% fetal calf serum. Infections were performed by adding HIV-1LA1 followed by a further incubation at 37° C., 5% CO2, 1 hr prior to addition of drugs. Assays were performed in 24 well plates (BD Biosciences, Franklin Lakes, N.J.). One ml of supernatant was collected after 5 days in culture and then centrifuged at 12,000 rpm for 2 hr at 4° C. in a Jouan Br43i (Thermo Electron Corp., Marietta, Ohio). The product of the RT assay was quantified using a Packard harvester and direct beta counter and the data were analyzed as previously described (Schinazi et al, 1990).

HIV-1 containing L74V = assay: microbe, parasite or virus in culture; assay type: cell-based; conditions: Human immunodeficiency virus 1, Lymphocyte
[1] = test system: HIV-1 containing A62V/V75I/F77L/F116Y/Q151M; assay: microbe, parasite or virus in culture; assay type: cell-based; conditions: Human immunodeficiency virus 1, Lymphocyte
PBM cells = assay: cells; conditions: Homo sapiens, PBMC, read-out: IC50 in PBM cells *Propidium Iodide assay
[2] = test system: acute infection in rhesus macaque macrophages; assay: cells; conditions: for EC90: read-out: Acute infection in rhesus macaque macrophages EC90
Text: (§1) The data (Shown in Table 5 below) are mean and standard deviations from at least three independent experiments.

[3] = test system: acute infection in rhesus macaque lymphocytes; assay: cells; conditions: Macaca mulatta, Lymphocyte; for EC90: read-out: Acute infection in rhesus macaque lymphocytes EC90
Text: as §1

HIV-1 containing M184V = assay: microbe, parasite or virus in culture; assay type: cell-based; conditions: Human immunodeficiency virus 1, Lymphocyte
wild-type HIV-1xxLAI = assay: Antiviral potency in primary human lymphocytes, wild type; assay type: cell-based; conditions: Human immunodeficiency virus 1, Lymphocyte; xxLAI; primary human lymphocytes; read-out: EC90
PHA stimulated PBM cells = assay: cells; conditions: Homo sapiens, PBMC, read-out: IC50 in PHA stimulated PBM cells *MTT Assay
[4] = test system: HIV-1 containing 4xAZT (D67N/K70R/T215Y/K219Q); assay: microbe, parasite or virus in culture; assay type: cell-based; conditions: Human immunodeficiency virus 1, Lymphocyte
PHA + IL-2 PBM cells = assay: cells; conditions: Homo sapiens, PBMC, read-out: IC50 in PHA + IL-2 PBM cells *MTT Assay
HIV-1 containing K65R = assay: microbe, parasite or virus in culture; assay type: cell-based; conditions: Human immunodeficiency virus 1, Lymphocyte
Mφ = assay: cells; conditions: Homo sapiens, read-out: IC50 in Mφ *MTT Assay
HIV-2 = assay: microbe, parasite or virus in culture; conditions: Human immunodeficiency virus 2, PBMC; for EC90: read-out: Anti-HIV-2 EC90 in acutely infected PBM cells
HIV-1BaL = assay: microbe, parasite or virus in culture; conditions: for EC90: read-out: Anti-HIV-1 EC90 in acutely infected MΦ
Method: Macrophages were isolated as follows: Monocytes were isolated from buffy coats of HIV-1 negative, HBV/HCV-negative donors with density gradient centrifugation coupled with enrichment for CD14+ monocytes with Rosette Sep antibody cocktail (Stem Cell Technologies, Vancouver, British Columbia). Cells were seeded at a concentration of 1.0×10^6 cells/well for 1 hr at 37° C. and 5% CO2 to confer plastic adherence prior to repeated washes with 1×PBS. Macrophages were maintained in medium containing 100 U/ml macrophage colony-stimulating factor (m-CSF, R&D Systems, Minneapolis, Minn.), supplemented with 20% fetal calf serum (Atlanta Biologicals, Lawrenceville, Ga.) and 1% penicillin/streptomyocin (Invitrogen, Carlsbad, Calif.) for 7 days (37° C., 5% CO2) prior to testing.
Macrophage infections: Macrophages were cultured as described above for 7 days. […] 4 hrs after infection, virus was removed and drug-containing medium was returned to the cultures. Supernatants were collected on day 7 post-infection and HIV-1 p24 was quantified via ELISA (Zeptometrix Corporation, Buffalo, N.Y.). EC50 analysis was performed using CalcuSyn software (BioSoft Corporation, Cambridge, UK).

activated PBM cells = assay type: cell-based, human
Text: The data is shown in FIG. 2, in terms of total cell number (10^6 cells) versus aM drug in medium.
The data is shown in FIG. 3, in terms of cell viability (%) versus aM drug in medium.

[5] = test system: various NRTI-resistant HIV-1; assay: Antiviral potency against various NRTI-resistant HIV-1 in primary human lymphocytes (summary over strains); assay type: cell-based; conditions: K65R, M184V, L74V, A62V/V75I/F77L/F116Y/Q151M, 4xAZT
Text: FI50 is the ratio of EC50 against mutant virus:EC50 against wild-type xxLAI. FI90 is the ratio of EC90 against mutant virus:EC90 against wild-type xxLAI.

[6] = test system: PHA+IL-2 stimulated primary human lymphocytes; assay: Proliferation and viability of PHA+IL-2 stimulated primary human lymphocytes; assay type: cell-based; conditions: PHA+IL-2 stimulated lymphocytes, 5 days
Method: (§2) The effect of various Jak inhibitors on proliferation and viability of PHA or PHA+IL-2 stimulated primary human lymphocytes was evaluated using the techniques described above.
(§3) For all experiments, cells were incubated with media alone or drug-containing medium for 5 days prior to assessment of cell count and viability. Data are mean and standard deviations for at least three independent experiments conducted with at least 4 pooled donors, and duplicates within each experiment.

latent HIV-1 [7] = assay: Reactivation of latent HIV-1 in memory CD4+ T cells from ART treated aviremic donors; assay type: cell-based; conditions: CD4 T cells from HIV-infected individuals; alone and in the presence of HAART
Method: (§4) FIGS. 11 A-E are graphicals showing that Jak inhibitors reduce frequency of cells harboring integrated viral DNA and IL-15-induced reactivation of latent HIV-1 in CD4 T cells. CD4 T cells were isolated from viremic donors and incubated with CD3/CD28 plus 0.01, 0.1, 1.0 or 10 μM of Jak inhibitors with or without EC99 of ART (180 nM zidovudine, 100 nM efavirenz, 200 nM Raltegravir) (A and B). After six days, integrated viral DNA was quantified using ultra sensitive Alu PCR versus DMSO controls (n=5). 0.01 μM represents the average of all assays completed using % DMSO equivalent to Jak inhibitor concentrations. Error bars represent S.E.M. and statistical significance determined by two-way ANOVA followed by Sidak's multiple comparison post-test: *p<0.05, **p<0.01, ***p<0.001 and ****p<0.0001 for A and B. In panel C-E, memory CD4^+ T cells were isolated from ART treated aviremic donors (n=3), activated with 10 ng/ml IL-15 (panel D) or CD3/CD28 (panel E) and maintained with or without 1 μM ruxolitinib in the presence of ART. Six days post reactivation, extracellular viral RNA copies were quantified by qRT-PCR (*p<0.01, one-way ANOVA).

pSTAT3 [8] = conditions: primary CD4+T lymphocytes
latent HIV-1 [9] = assay: Reactivation of latent HIV-1 in primary human macrophages (PMA, p24 ELISA); assay type: cell-based; conditions: drug applied during reactivation, removed thereafter, within 72 hr post reactivation
pSTAT5 = conditions: primary CD4+T lymphocytes
integrated viral DNA = assay: Integrated viral DNA in CD4 T cells from viremic donors (Alu PCR); assay type: cell-based; conditions: CD4 T cells from HIV-infected individuals; alone and in the presence of HAART
Method: as §4

pSTAT3 [10] = assay: cells; conditions: read-out: EC90 pSTAT3
[11] = test system: PHA stimulated primary human lymphocytes; assay: Proliferation and viability of PHA stimulated primary human lymphocytes; assay type: cell-based; conditions: 5 days, all concentrations
Method: as §2, §3

pSTAT1 = conditions: primary CD4+T lymphocytes
[12] = Human immunodeficiency virus 1, PBMC, in Homo sapiens
[13] = Human immunodeficiency virus 1, Macrophage, in Homo sapiens

Cc1cn([C@H]2C[C@H](N=[N+]=[N-])[C@@H](CO)O2)c(=O)[nH]c1=O [AZT, 3′-azido-3′-deoxythymidine]
EC50 (HIV-1LAI; Human immunodeficiency virus 1, PBMC, in Homo sapiens, read-out: Anti-HIV-1 EC50 in acutely infected PBM cells): 20 ± 8 nM
EC90 (HIV-1LAI; [12]): 130 ± 30 nM
EC50 (HIV-1 containing L74V): 20 ± 20 nM
EC90 (HIV-1 containing L74V): 200 ± 100 nM
EC50 [1]: 4600 ± 7700 nM
EC90 [1]: 41200 ± 50200 nM
IC50 (PBM cells): > 50000 nM
EC50 ([2]; Macaca mulatta, Macrophage, read-out: Acute infection in rhesus macaque macrophages EC50): 80 ± 100 nM
EC90 ([2]; Macaca mulatta, Macrophage): 900 ± 700 nM
EC50 ([3]; read-out: Acute infection in rhesus macaque lymphocytes EC50): 2 ± 1 nM
EC90 [3]: 30 ± 20 nM
EC50 (HIV-1 containing M184V): 10 ± 20 nM
EC90 (HIV-1 containing M184V): 20 ± 10 nM
EC90 (wild-type HIV-1xxLAI): 100 ± 80 nM
IC50 (PHA stimulated PBM cells): > 100000 nM
EC50 [4]: 100 ± 100 nM
EC90 [4]: 53300 ± 66100 nM
CC50 (PHA + IL-2 PBM cells): > 100000 nM
EC50 (HIV-1 containing K65R): 40 ± 20 nM
EC90 (HIV-1 containing K65R): 300 ± 100 nM
IC50 (Mφ): > 100000 nM
EC50 (HIV-2; read-out: Anti-HIV-2 EC50 in acutely infected PBM cells): 1 ± 0.8 nM
EC90 (HIV-2): 10 ± 10 nM
EC50 (HIV-1BaL; Human immunodeficiency virus 1, Macrophage, in Homo sapiens, read-out: Anti-HIV-1 EC50 in acutely infected MΦ): 10 ± 20 nM
EC90 (HIV-1BaL; [13]): 70 ± 120 nM

C[C@@H]1CCN(C(=O)CC#N)C[C@@H]1N(C)c1ncnc2[nH]ccc12 [Tofacitinib, 3-{(3R,4R)-4 methyl-3-[methyl-(7H-pyrrolo[2,3-d]pyrimidin-4-yl)-amino]-piperidin-1-yl}-3-oxo-propionitrile]
EC90 (HIV-1LAI; [12]): 17100 ± 15100 nM
inhibition of HIV-1 replication (HIV-1LAI; PBM cells): sub-micromolar
EC90 (HIV-1 containing L74V): 47700 ± 45300 nM
EC90 [1]: 8900 ± 8800 nM
total cell proliferation (total cell number) (activated PBM cells): do not affect total cell proliferation
total cell viability (activated PBM cells): do not affect total cell viability
EC90 ([2]; Macaca mulatta, Macrophage): ~4000 nM
EC90 [2]: 3100 ± 900 nM
EC90 [3]: 2900 ± 500 nM
EC90 (HIV-1 containing M184V): 27100 ± 15700 nM
FI50 or FI90 versus wild type HIV-1xxLAI [5]: not significant increase; also recorded: did not display a significant difference
antiviral potency for wild-type HIV-1xxLAI versus NRTI-resistant HIV-1 [5]: not significantly different
proliferation versus cells exposed to media alone ([6]; 1.0 μM): significantly inhibited
viability versus cells exposed to media alone ([6]; all concentrations): not significantly different
EC90 (wild-type HIV-1xxLAI): 28400 ± 16700 nM
reservoir reactivation (latent HIV-1 [7]): block reservoir reactivation
EC90 [4]: 17100 ± 4500 nM
EC90 (HIV-1 containing K65R): 81200 ± 26700 nM
concentrations inhibiting IFN-α induced phosphorylation of STAT3 (pSTAT3 [8]): sub-micromolar
percent inhibition of reactivation of latent HIV-1 versus no drug control (latent HIV-1 [9]): ~40%
concentrations inhibiting IFN-α induced phosphorylation of STAT5 (pSTAT5): sub-micromolar
size of the HIV reservoir (integrated viral DNA): decay the size of the HIV reservoir
EC90 (pSTAT3 [10]): 900 nM
EC90 (HIV-2): 1800 ± 1100 nM
EC90 (HIV-1BaL; [13]): 2900 ± 1400 nM
inhibition of HIV-1 replication (HIV-1BaL; MØ cells): sub-micromolar
proliferation versus cells exposed to media alone [11]: not significantly different
viability versus cells exposed to media alone [11]: not significantly different
concentrations inhibiting IFN-α induced phosphorylation of STAT1 (pSTAT1): sub-micromolar
